Key:
Assay type in all cases: in vivo
[1] = system: APP/PS1 double transgenic AD model mice; assay: β-amyloid deposition in cerebral cortex and hippocampus of APP/PS1 mice
Protocol: The drugs were administered three days after the adaptive feeding. Peanut oil was used as the solvent. […] On the 6th to 9th day after the administration, the new object identification test was performed. On the 10th day, the Y-maze test was performed. On the 11th to 15th day, the Morris water maze test was performed to determine the improvement of learning and memory. The administration of the drugs was continued during the behavioral experiment until the animals were sacrificed (16th day).
After the behavioral experiment, the mice were anesthetized with an intraperitoneal injection of 3.5% chloral hydrate 3.5% (about […] for each mouse). Then the back of the mouse was fixed on the operating table and the chest was open to expose the heart. A perfusion needle was inserted into the left ventricle from the apex of the heart, while the right atrial appendage cut a small opening. First, perfusion was performed with about 200 ml saline. When the tail of the mouse was cut to find no blood, 300 ml 4% paraformaldehyde buffer (0.1 mol/L) at 4° C. was used to perfuse until the body of the mouse was stiff. The mouse was then decapitated, and the whole brain was obtained and fixed in 4% paraformaldehyde at 4° C. After 24 h, the brain was embedded in conventional paraffin and coronally sectioned to obtain the tissue sections with a thickness of 5 μm for immunohistochemical staining. […]

APP/PS1 transgenic mice [2] = assay: Morris water maze test (oriented navigation and probe test); conditions: for Number of times traversing the safe platform vs model group / Percentage of the swimming distance in the target quadrant vs model group / Swimming time in the target quadrant vs model group: probe test
Protocol: The drugs were administered three days after the adaptive feeding. Peanut oil was used as the solvent. The drug was intragastric administered once a day for 15 days. On the 6th to 9th day after the administration, the new object identification test was performed. On the 10th day, the Y-maze test was performed. On the 11th to 15th day, the Morris water maze test was performed to determine the improvement of learning and memory. The administration of the drugs was continued during the behavioral experiment until the animals were sacrificed (16th day).
The experimental device includes a black circular pool with a diameter of 100 cm and a height of 40 cm, and a white platform (safe platform) having a diameter of about 10 cm. The location of the safe platform could be moved. Morris Water Maze Video Detection and Analysis System was provided by the Institute of Materia Medica, China Academy of Medical Sciences. One day before the experiment, water was injected into the black circular pool (water temperature 22±1° C.), and white pigment was added to mix uniformly. The water surface was usually about 1 cm higher than the top of the safe platform. The pool was divided into four quadrants I, II, III and IV, and the safe platform was usually placed in the middle of the quadrant IV. The experiment was divided into two parts: (1) Oriented navigation: the animal grouping was input into a computer software in advance. The position of the safe platform was kept unchanged during the experiment. During the test, the experimental animal facing the pool wall was placed in the water from different inlets, and the computer simultaneously collected data and recorded the time to find the safe platform (escape latency). Data collection automatically stopped when the animal stayed on the safe platform for 10 s. The data acquisition time of the mouse was 60 s. If the animal could not find the safe platform within the specified time, the escape latency was recorded as 60 s. At the same time, the operator induced the animal to reach the safe platform and stay for 10 s. The animal was trained twice a day for 4 consecutive days. (2) Probe test: after the oriented navigation test is completed, the safe platform is removed and the animal was placed in the pool free to explore for 60 s. The camera system automatically recorded the time and distance of the experimental animal swimming in the quadrant of the safe platform within the specified time and the number of times passing through the location of the safe platform.

APP/PS1 transgenic mice [3] = assay: Social interaction experiment; conditions: 200 mg/kg
Protocol: The social interaction device was composed of a square box (length×width×height: 50 cm×50 cm×15 cm). The behavioral laboratory used diffuse and dim light (25 W) and tried to avoid environmental stress caused by shadows in the experimental area. Before the social interaction experiment, in order to eliminate the influence of unfamiliar environment, each mouse was placed in the experimental device alone to adapt to the environment, 10 min each day for two consecutive days. At the beginning of the test on day 3, the mouse was randomly paired with another strange partner. Two groups of experimental animals were placed in the experimental device at the same time, and the time spent by the mice in the active social interaction behavior was recorded. The test time was 10 min, including sniffing, combing, and scratching or chasing each other. However, passive contact activities (overwhelmed or being ridden by the other mouse, etc.) are not recorded in the social interaction behavior. After each test, 1% bromo geramine was used to disinfect the social interaction device.

APP/PS1 mice = assay: Patch clamp experiment, LTP (synaptic function)
mice = assay: LD50 test, single intragastric dose (preliminary safety evaluation); conditions: 5000 mg/kg intragastric

CC1(C)CCC(C)(C)c2c1cc1c(c2NC(=O)c2ccc(NC(=O)NCCN)cc2)C(C)(C)CCC1(C)C [OAB-14, 1-(2-amino) ethyl-3-{4-[(1,1,4,4,5,5,8,8-octamethyl-1,2,3,4,5,6,7,8-octahydro-9-anthryl)carbamoyl]phenyl} urea]
Reduction of the deposition of β-amyloid protein in cerebral cortex and hippocampus ([1]; 200 mg/kg, continuous intragastric administration 14 days, 8-month-old APP/PS1 mice): 67.4% | Dose-effect relationship of the reduction of β-amyloid deposition ([1]; dose range 50-200 mg/kg, intragastric, 14 days): good dose-effect relationship | Total swimming distance vs model group (APP/PS1 transgenic mice [2]; 100 mg/kg, fourth day of training): significantly reduced | Escape latency vs model group (APP/PS1 transgenic mice [2]; 100 mg/kg, third and fourth days of training): significantly reduced | Escape latency vs model group (APP/PS1 transgenic mice [2]; 200 mg/kg, from the second day of training): significant decrease | Total swimming distance vs model group (APP/PS1 transgenic mice [2]; 200 mg/kg, from the third day of training): significant decrease | Number of times traversing the safe platform vs model group (APP/PS1 transgenic mice [2]; 100 mg/kg): significantly increased | Percentage of the swimming distance in the target quadrant vs model group (APP/PS1 transgenic mice [2]; 100 mg/kg): significantly increased | Swimming time in the target quadrant vs model group (APP/PS1 transgenic mice [2]; 100 mg/kg): significantly increased | Number of times traversing the safe platform vs model group (APP/PS1 transgenic mice [2]; 200 mg/kg): significantly increased | Percentage of the swimming distance in the target quadrant vs model group (APP/PS1 transgenic mice [2]; 200 mg/kg): significantly increased | Swimming time in the target quadrant vs model group (APP/PS1 transgenic mice [2]; 200 mg/kg): significantly increased | Spatial learning and memory disorders of the APP/PS1 mice (APP/PS1 transgenic mice [2]; water maze oriented navigation, overall): significantly improved | Active contact time vs model group (APP/PS1 transgenic mice [3]): significantly increased | LTP (APP/PS1 mice; 100 mg/kg group): significantly enhanced | LTP (APP/PS1 mice; 200 mg/kg group): significantly enhanced | Abnormalities in organs such as heart, liver, spleen and kidney (mice): no abnormalities were detected | Adverse reactions observed with the naked eye (mice): no visible adverse reactions were observed
